Laboratory results taken from patent US7541367B2, “3-benzoimidazolyl-pyrazolopyridines useful in treating kinase disorders” (Janssen Pharmaceutica, N.V., priority 2005, dated 2009).

Key:
CDK1 = biological target: T1, CDK1 (Homo sapiens, UniProt P06493); assay: CDK-1 kinase screening assay (33P-ATP FlashPlate); assay type: biochemical; conditions: human CDK1 with cyclin B; 10 μM ATP; 1 hr at 30° C
T1 construct: purchased New England Biolabs, Beverly, Mass; 6020; host or cells: insect cells
Procedure: A kinase reaction mixture was prepared containing 50 mM Tris-HCl pH=8, 10 mM MgCl2, 0.1 mM […], 1 mM DTT, 10 μM ATP, 0.025 μM biotinylated histone-H1 peptide substrate and 0.2 μCuries per well ^33P-γ-ATP (2000-3000 Ci/mmol). 70 μL of the kinase reaction mixture was dispensed into the well of a streptavidin coated FlashPlate™ (Cat. # SMP103, NEN, Boston, Mass.).
Test compound stock in 100% DMSO (1 μL) was added to the wells resulting in a final concentration of 1% DMSO in the reaction with a 100 μL final reaction volume. Each enzyme was diluted in 50 mM Tris-HCl pH=8.0, 0.11% BSA and 30 μL was added to each well to initiate the reaction. The reaction was incubated for one hour at 30° C. At the end of the 1 hr incubation, the reaction was terminated by aspirating the mixture from the plate and washing the wells twice with PBS containing 100 mM EDTA. The biotinylated peptide substrate became immobilized on the Flashplate™ and the incorporation of ^33P-γ-ATP was measured by reading the plate on a scintillation counter. Inhibition of the enzymatic activity was measured by observing a reduced amount of ^33P-γ-ATP incorporated into the immobilized peptide.
The CDK1 enzyme was isolated from insect cells expressing both the human CDK1 catalytic subunit (Accession number NM_001786) and its positive regulatory subunit cyclin B (New England Biolabs, Beverly, Mass.; Cat. # 6020). The assay used 30 ng of the N-terminal biotinylated peptide biotin-[…]-amide (Cyclin dependent kinase 1) per well.
A maximum and minimum signal for the assay was determined on each plate. The percent inhibition of a test compound was calculated according to the formula: […]
For a series of test concentrations, the IC50 was derived by graphing percent inhibition against the log of the concentrations tested for a given compound with results shown in Table 1.
For compounds with multiple values, each value represents a separate assay result.

VEGF-R2 = biological target: T2, VEGF-R2 (Rattus norvegicus, UniProt O08775); assay: VEGF-R2 kinase screening assay (33P-ATP FlashPlate); assay type: biochemical; conditions: rat VEGF-R2 kinase domain; 10 μM ATP; 1 hr at 30° C;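 also: Read-out is ³³P incorporation from ³³P-γ-ATP into biotinylated peptide substrate captured on streptavidin FlashPlate, counted by scintillation, 1% DMSO final, inhibition scaled between per-plate maximum and minimum signals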
T2 construct: polyhistidine (N)
T2 sequence (O08775 786-1343): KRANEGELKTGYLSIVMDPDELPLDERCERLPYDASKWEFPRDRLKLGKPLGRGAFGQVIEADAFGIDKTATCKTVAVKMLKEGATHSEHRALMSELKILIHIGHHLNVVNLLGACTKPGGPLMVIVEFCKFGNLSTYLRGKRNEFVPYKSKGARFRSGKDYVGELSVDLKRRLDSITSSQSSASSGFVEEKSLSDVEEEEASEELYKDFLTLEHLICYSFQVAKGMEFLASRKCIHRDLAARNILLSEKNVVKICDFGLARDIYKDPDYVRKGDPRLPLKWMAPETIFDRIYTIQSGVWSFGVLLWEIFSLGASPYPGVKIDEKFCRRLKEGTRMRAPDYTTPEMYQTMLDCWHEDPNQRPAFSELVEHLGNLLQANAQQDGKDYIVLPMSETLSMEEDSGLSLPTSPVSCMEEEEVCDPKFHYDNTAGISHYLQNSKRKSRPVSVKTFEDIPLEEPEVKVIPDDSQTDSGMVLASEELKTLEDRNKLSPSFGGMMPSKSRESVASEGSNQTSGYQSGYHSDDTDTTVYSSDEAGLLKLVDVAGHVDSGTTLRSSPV

HER2 = biological target: T3, HER2 (Homo sapiens, UniProt P04626); assay: HER2 kinase screening assay (33P-ATP FlashPlate); assay type: biochemical; conditions: GST-HIS6 HER-2 aa 679 to 1255; 10 μM ATP; 1 hr at 30° C;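 also: Biotin-poly(GT) 4:1 peptide captured on streptavidin FlashPlate, 33P transfer from γ-ATP read by scintillation counting, lower incorporation means inhibition, 1% DMSO final, 100 µL reaction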
T3 construct: GST (Glutathione-S-Transferase) (N); HIS6 (N); thrombin cleavage site (N); purchased Proqinase, Freiburg, Germany
T3 sequence (P04626 679-1255): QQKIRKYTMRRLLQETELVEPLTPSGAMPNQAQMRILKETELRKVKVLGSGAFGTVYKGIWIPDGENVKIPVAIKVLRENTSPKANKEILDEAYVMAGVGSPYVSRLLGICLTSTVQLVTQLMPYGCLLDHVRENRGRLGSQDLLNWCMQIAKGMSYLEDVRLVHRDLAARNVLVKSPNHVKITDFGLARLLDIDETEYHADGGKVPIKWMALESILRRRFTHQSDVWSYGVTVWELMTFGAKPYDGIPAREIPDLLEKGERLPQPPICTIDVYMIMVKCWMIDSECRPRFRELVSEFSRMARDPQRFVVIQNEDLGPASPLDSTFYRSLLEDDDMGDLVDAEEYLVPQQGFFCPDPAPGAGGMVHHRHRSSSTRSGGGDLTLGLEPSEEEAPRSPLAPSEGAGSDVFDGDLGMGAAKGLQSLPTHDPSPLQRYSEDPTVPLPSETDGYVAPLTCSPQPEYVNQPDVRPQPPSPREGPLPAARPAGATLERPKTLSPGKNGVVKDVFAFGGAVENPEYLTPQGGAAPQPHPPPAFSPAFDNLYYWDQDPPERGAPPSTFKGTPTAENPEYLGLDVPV

Aurora-A = biological target: T4, Aurora-A (Mus musculus, UniProt P97477); assay: Aurora-A kinase screening assay (33P-ATP FlashPlate); assay type: biochemical; conditions: 10 μM ATP, 1 hr at 30° C;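 also: His-tagged mouse Aurora-A phosphorylating a biotinylated peptide captured on streptavidin plates, read as 33P uptake by scintillation counting, 1% DMSO, inhibition scaled between per-plate maximum and minimum signals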
T4 construct: polyhistidine (N)
T4 sequence (P97477 1-395): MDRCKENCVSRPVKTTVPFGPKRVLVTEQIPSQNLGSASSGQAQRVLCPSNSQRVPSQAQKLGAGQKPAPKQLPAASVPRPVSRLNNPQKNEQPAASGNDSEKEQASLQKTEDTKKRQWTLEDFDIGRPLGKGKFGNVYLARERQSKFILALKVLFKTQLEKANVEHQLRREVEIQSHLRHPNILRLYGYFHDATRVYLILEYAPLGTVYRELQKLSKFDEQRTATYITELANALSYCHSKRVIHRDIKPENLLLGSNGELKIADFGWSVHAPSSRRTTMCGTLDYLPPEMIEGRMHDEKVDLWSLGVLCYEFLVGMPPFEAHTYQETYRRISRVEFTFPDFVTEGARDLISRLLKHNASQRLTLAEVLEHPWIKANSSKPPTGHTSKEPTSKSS

RET = biological target: T5, RET (Homo sapiens, UniProt P07949); assay: RET kinase screening assay (33P-ATP FlashPlate); assay type: biochemical; conditions: human RET kinase domain; 10 μM ATP; 1 hr at 30° C;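 also: biotinylated peptide substrate captured on streptavidin FlashPlate, 33P phosphate transfer read by scintillation counting, 1% DMSO, lower incorporation means inhibition, percent relative to per-plate maximum and minimum signals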
T5 construct: polyhistidine (N)
T5 sequence (P07949 658-1114 limits assumed): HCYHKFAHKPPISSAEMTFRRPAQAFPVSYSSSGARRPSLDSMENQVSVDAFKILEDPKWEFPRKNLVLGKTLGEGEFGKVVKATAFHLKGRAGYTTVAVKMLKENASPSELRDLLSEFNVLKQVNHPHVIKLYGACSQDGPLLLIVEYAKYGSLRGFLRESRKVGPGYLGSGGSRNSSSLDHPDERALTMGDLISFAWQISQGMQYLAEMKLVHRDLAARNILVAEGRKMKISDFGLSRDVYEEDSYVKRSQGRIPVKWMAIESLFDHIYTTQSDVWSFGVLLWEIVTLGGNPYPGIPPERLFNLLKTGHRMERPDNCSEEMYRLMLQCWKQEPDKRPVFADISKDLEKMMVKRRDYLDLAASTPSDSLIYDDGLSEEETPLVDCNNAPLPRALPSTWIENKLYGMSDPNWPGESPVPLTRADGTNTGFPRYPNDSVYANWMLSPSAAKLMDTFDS

[1] = system: HeLa cervical adenocarcinoma; assay: Cell Proliferation Inhibition Assay (14C-thymidine incorporation), HeLa; assay type: cell-based; conditions: Homo sapiens, HeLa cells;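 also: test compound in DMSO added to cells seeded in scintillating 96-well plates, DMSO-only wells as control, uptake of methyl 14C-thymidine into new DNA counted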
A375 malignant melanoma = assay: Cell Proliferation Inhibition Assay (14C-thymidine incorporation), A375; assay type: cell-based; conditions: Homo sapiens, A-375, A375 cells;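 also: proliferation measured by radiolabelled thymidine uptake into new DNA, counted in scintillating 96-well plates, compound-treated wells compared with DMSO-only control wells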
HCT-116 colon carcinoma = assay: Cell Proliferation Inhibition Assay (14C-thymidine incorporation), HCT-116; assay type: cell-based; conditions: Homo sapiens;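 also: proliferation measured as methyl 14C-thymidine uptake into new DNA, counted in 96-well scintillating microplates, compared with DMSO-only control wells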

T1 sequence (P06493 whole entry): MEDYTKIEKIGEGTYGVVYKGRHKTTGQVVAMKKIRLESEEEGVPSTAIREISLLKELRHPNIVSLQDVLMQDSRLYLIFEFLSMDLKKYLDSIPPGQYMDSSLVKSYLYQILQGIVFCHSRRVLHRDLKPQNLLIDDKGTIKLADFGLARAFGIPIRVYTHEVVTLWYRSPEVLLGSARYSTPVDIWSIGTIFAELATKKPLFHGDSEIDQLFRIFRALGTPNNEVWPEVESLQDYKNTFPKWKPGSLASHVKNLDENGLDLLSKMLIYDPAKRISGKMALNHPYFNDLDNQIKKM
T1 sequence (P14635 whole entry partner): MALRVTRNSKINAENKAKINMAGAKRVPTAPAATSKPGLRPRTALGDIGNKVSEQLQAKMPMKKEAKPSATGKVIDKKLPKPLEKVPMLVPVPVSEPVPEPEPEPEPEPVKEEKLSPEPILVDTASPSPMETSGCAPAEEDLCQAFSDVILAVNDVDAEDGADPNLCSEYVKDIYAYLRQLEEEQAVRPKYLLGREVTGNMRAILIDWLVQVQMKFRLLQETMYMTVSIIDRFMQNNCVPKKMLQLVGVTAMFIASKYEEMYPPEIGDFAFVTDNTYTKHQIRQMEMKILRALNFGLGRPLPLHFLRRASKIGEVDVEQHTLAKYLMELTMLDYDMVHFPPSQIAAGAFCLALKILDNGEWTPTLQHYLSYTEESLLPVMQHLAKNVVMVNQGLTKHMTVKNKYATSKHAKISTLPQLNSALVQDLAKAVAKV

Row | SMILES | IC50 (CDK1) [nM] | IC50 (VEGF-R2) [nM] | IC50 (HER2) [nM] | IC50 (Aurora-A) [nM] | IC50 (RET) [nM] | IC50 ([1]; HeLa) [nM] | IC50 (A375 malignant melanoma) [nM] | IC50 (HCT-116 colon carcinoma; HCT-116, HCT-116 cells) [nM] | IC50 [1] [nM] | IC50 (HCT-116 colon carcinoma; HCT-116 cells) [nM]
1 | COCc1cccc2[nH]c(-c3n[nH]c4ncc(-c5cn(S(=O)(=O)c6ccccc6)c6ccccc56)cc34)nc12 [Cpd 38, 5-(1-benzenesulfonyl-1H-indol-3-yl)-3-(4-methoxymethyl-1H-benzoimidazol-2-yl)-1H-pyrazolo[3,4-b]pyridine] | > 10000 | > 1000 | > 100000 | ~100000 | > 100000 | 1900 | 56.8 | 39.4 |  | 
2 | c1ccc2c(-c3cnc4[nH]nc(-c5nc6c(Cn7ccnc7)cccc6[nH]5)c4c3)cncc2c1 [Cpd 12, 4-[3-(4-imidazol-1-ylmethyl-1H-benzoimidazol-2-yl)-1H-pyrazolo[3,4-b]pyridin-5-yl]-isoquinoline] | 41.5 | ~10000 |  | ~10000 | ~100000 | 3200 | 4090 | 1890 |  | 
3 | CN1CCC(NC(=O)c2cccc3[nH]c(-c4n[nH]c5ncc(-c6cncc7ccccc67)cc45)nc23)CC1 [Cpd 28, 2-(5-isoquinolin-4-yl-1H-pyrazolo[3,4-b]pyridin-3-yl)-1H-benzoimidazole-4-carboxylic acid (1-methyl-piperidin-4-yl)-amide] | 724 | > 100000 | > 10000 | > 10000 | > 100000 | 26900 | 5620 | 4990 |  | 
4 | CC(C)OCc1cccc2[nH]c(-c3n[nH]c4ncc(-c5cncc6ccccc56)cc34)nc12 [Cpd 32, 4-[3-(4-isopropoxymethyl-1H-benzoimidazol-2-yl)-1H-pyrazolo[3,4-b]pyridin-5-yl]-isoquinoline] | 98.7 | ~100 | > 100000 | > 1000 | > 100000 |  | 905 |  | 2140 | 2880
5 | c1ccc2c(-c3cnc4[nH]nc(-c5nc6c(CN7CCCCC7)cccc6[nH]5)c4c3)cncc2c1 [Cpd 8, 4-[3-(4-piperidin-1-ylmethyl-1H-benzoimidazol-2-yl)-1H-pyrazolo[3,4-b]pyridin-5-yl]-isoquinoline] | 8.11 | 403 |  | 1370 | > 10000 | 48.6 | 29.2 | 28.5 |  | 
6 | COCc1cccc2[nH]c(-c3n[nH]c4ncc(-c5cncc(CN6CCOCC6)c5C)cc34)nc12 [Cpd 60, 3-(4-methoxymethyl-1H-benzoimidazol-2-yl)-5-(4-methyl-5-morpholin-4-ylmethyl-pyridin-3-yl)-1H-pyrazolo[3,4-b]pyridine] | 471 | 3050 | ~100000 | ~1000 | > 10000 | 1600 | 11.1 | 39.5 |  | 
7 | O=C(c1cccc2[nH]c(-c3n[nH]c4ncc(-c5cncc6ccccc56)cc34)nc12)N1CCCC1 [Cpd 21, [2-(5-isoquinolin-4-yl-1H-pyrazolo[3,4-b]pyridin-3-yl)-1H-benzoimidazole-4-yl]-pyrrolidin-1-yl-methanone] | 162 | 2790 | > 10000 | 4830 | > 10000 | 804 | 472 | 899 |  | 
8 | CN1CCN(c2ccc3[nH]c(-c4n[nH]c5ncc(-c6cccnc6)cc45)nc3c2)CC1 [Cpd 89, 3-[5-(4-methyl-piperazin-1-yl)-1H-benzoimidazol-2-yl]-5-pyridin-3-yl-1H-pyrazolo[3,4-b]pyridine] |  | 47.5 | 31800 | 225 | 193 | 617 | 544 | 423 |  | 
9 | c1ccc2c(-c3cnc4[nH]nc(-c5nc6c(CN7CCCC7)cccc6[nH]5)c4c3)cncc2c1 [Cpd 7, 4-[3-(4-pyrrolidin-1-ylmethyl-1H-benzoimidazol-2-yl)-1H-pyrazolo[3,4-b]pyridin-5-yl]-isoquinoline] | 4.92 | 1570 |  | 1720 | > 10000 | 113 | 82.5 | 64.8 |  | 
10 | CCN1CCN(Cc2cccc3[nH]c(-c4n[nH]c5ncc(-c6cncc7ccccc67)cc45)nc23)CC1 [Cpd 10, 4-{3-[4-(4-ethyl-piperazin-1-ylmethyl)-1H-benzoimidazol-2-yl]-1H-pyrazolo[3,4-b]pyridin-5-yl}-isoquinoline] | 15.9 | 163 |  | 6740 | > 10000 | 127 | 118 | 191 |  | 
11 | c1ccc2c(-c3cnc4[nH]nc(-c5nc6c(CN7CCOCC7)cccc6[nH]5)c4c3)cncc2c1 [Cpd 9, 4-[3-(4-morpholin-4-ylmethyl-1H-benzoimidazol-2-yl)-1H-pyrazolo[3,4-b]pyridin-5-yl]-isoquinoline] | 8.45 | 210 |  | ~10000 | ~10000 | 92.6 | 84 | 64.7 |  | 
12 | OCc1cccc2[nH]c(-c3n[nH]c4ncc(-c5cncc6ccccc56)cc34)nc12 [Cpd 3, [2-(5-isoquinolin-4-yl-1H-pyrazolo[3,4-b]pyridin-3-yl)-1H-benzoimidazol-4-yl]-methanol] | 41.2 | > 100000 | 245 | > 10000 | > 100000 | 1760 |  | 892 |  | 
13 | COC(=O)c1cccc2[nH]c(-c3n[nH]c4ncc(-c5cncc6ccccc56)cc34)nc12 [Cpd 108, 2-(5-isoquinolin-4-yl-1H-pyrazolo[3,4-b]pyridin-3-yl)-1H-benzoimidazole-4-carboxylic acid methyl ester] | ~10000 | ~100000 | > 100000 | ~100000 | > 100000 | 10500 | 7380 |  |  | 
14 | CCCCNCc1cncc(-c2cnc3[nH]nc(-c4nc5cc(OC)ccc5[nH]4)c3c2)c1 [Cpd 104, butyl-{5-[3-(5-methoxy-1H-benzoimidazol-2-yl)-1H-pyrazolo[3,4-b]pyridin-5-yl]-pyridin-3-ylmethyl}-amine] | 0.8 | 17.9 | 1880 | 245 |  |  | 39.5 |  | 85 | 52
15 | COCc1cccc2[nH]c(-c3n[nH]c4ncc(-c5cnc6ccccc6c5)cc34)nc12 [Cpd 34, 3-[3-(4-methoxymethyl-1H-benzoimidazol-2-yl)-1H-pyrazolo[3,4-b]pyridin-5-yl]-quinoline] | 1360 | 157 |  | > 10000 | ~10000 | 1460 | 10.7 |  |  | 
